From patent US20200361914A1, “SUBSTITUTED BENZENE AND 6,5-FUSED BICYCLIC HETEROARYL COMPOUNDS” (Epizyme, Inc., priority 2014, published 2020) come the findings set out here.

Where two headings read alike, the source gives them in different places.

Assay [1] relates to H3K27 trimethylation in WSU-DLCL2 cells. Description: WSU-DLCL2 methylation assay (H3K27me3 ELISA). Type of assay: cell-based, Human. Particulars: H3K27me3 normalised to total H3, read-out: EZH2 WSU ELISA IC50. The source says:
WSU-DLCL2 Methylation Assay
WSU-DLCL2 suspension cells are purchased from DSMZ (German Collection of Microorganisms and Cell Cultures, Braunschweig, Germany). RPMI/Glutamax Medium, Penicillin-Streptomycin, Heat Inactivated Fetal Bovine Serum, and D-PBS were purchased from Life Technologies, Grand Island, N.Y., USA. Extraction Buffer and Neutralization Buffer (5×) were purchased from Active Motif, Carlsbad, Calif., USA. Rabbit anti-Histone H3 antibody is purchased from Abcam, Cambridge, Mass., USA. Rabbit anti-H3K27me3 and HRP-conjugated anti-rabbit-IgG are purchased from Cell Signaling Technology, Danvers, Mass., USA. TMB “Super Sensitive” substrate is sourced from BioFX Laboratories, Owings Mills, Md., USA. IgG-free Bovine Serum Albumin is purchased from Jackson ImmunoResearch, West Grove, Pa., USA. PBS with Tween (10×PBST) was purchased from KPL, Gaithersburg, Md., USA. Sulfuric Acid is purchased from Ricca Chemical, Arlington, Tex., USA. Immulon ELISA plates were purchased from Thermo, Rochester, N.Y., USA. V-bottom cell culture plates are purchased from Corning Inc., Corning, N.Y., USA.V-bottom polypropylene plates were purchased from Greiner Bio-One, Monroe, N.C., USA.
WSU-DLCL2 suspension cells are maintained in growth medium (RPMI 1640 supplemented with 10% v/v heat inactivated fetal bovine serum and 100 units/mL penicillin-streptomycin) and cultured at 37° C. under 5% CO2. Under assay conditions, cells are incubated in Assay Medium (RPMI 1640 supplemented with 20% v/v heat inactivated fetal bovine serum and 100 units/mL penicillin-streptomycin) at 37° C. under 5% CO2 on a plate shaker.
WSU-DLCL2 cells are seeded in assay medium at a concentration of 50,000 cells per mL to a 96-well V-bottom cell culture plate with 200 μL per well. Compound (1 μL) from 96 well source plates is added directly to V-bottom cell plate. Plates are incubated on a titer-plate shaker at 37° C., 5% CO2 for 96 hours. After four days of incubation, plates are spun at 241×g for five minutes and medium was aspirated gently from each well of cell plate without disturbing cell pellet. Pellet is resuspended in 200 μL DPBS and plates are spun again at 241×g for five minutes. The supernatant is aspirated and cold (4° C.) Extraction buffer (100 μL) is added per well. Plates are incubated at 4° C. on orbital shaker for two hours. Plates are spun at 3427×g x 10 minutes. Supernatant (80 μL per well) is transferred to its respective well in 96 well V-bottom polypropylene plate. Neutralization Buffer 5×(20 μL per well) is added to V-bottom polypropylene plate containing supernatant. V-bottom polypropylene plates containing crude histone preparation (CHP) are incubated on orbital shaker x five minutes. Crude Histone Preparations are added (2 μL per well) to each respective well into duplicate 96 well ELISA plates containing 100 μL Coating Buffer (1×PBS+BSA 0.05% w/v). Plates are sealed and incubated overnight at 4° C. The following day, plates were washed three times with 300 μL per well 1×PBST. Wells are blocked for two hours with 300 μL per well ELISA Diluent ((PBS (1×) BSA (2% w/v) and Tween20 (0.05% v/v)). Plates are washed three times with 1×PBST. For the Histone H3 detection plate, 100 μL per well are added of anti-Histone-H3 antibody (Abcam, ab1791) diluted 1:10,000 in ELISA Diluent. For H3K27 trimethylation detection plate, 100 μL per well are added of anti-H3K27me3 diluted 1:2000 in ELISA diluent. Plates are incubated for 90 minutes at room temperature. Plates are washed three times with 300 μL 1×PBST per well. For Histone H3 detection, 100 μL of HRP-conjugated anti-rabbit IgG antibody diluted to 1:6000 in ELISA diluent is added per well. For H3K27me3 detection, 100 μL of HRP conjugated anti-rabbit IgG antibody diluted to 1:4000 in ELISA diluent is added per well. Plates are incubated at room temperature for 90 minutes. Plates are washed four times with 1×PBST 300 μL per well. TMB substrate 100 μL is added per well. […]
(An ELISA detects its analyte on a solid surface through an enzyme-linked reagent.)

Assay [2] has as its target wild-type PRC2 enzyme (EZH2 WT) (Homo sapiens, UniProt Q15910). Briefly: PRC2 enzyme assay on peptide substrate, wild-type EZH2.
Description: (§1) S-adenosylmethionine (SAM), S-adenosylhomocyteine (SAH), bicine, KCl, Tween20, dimethylsulfoxide (DMSO) and bovine skin gelatin (BSG) can be purchased from Sigma-Aldrich at the highest level of purity possible. Dithiothreitol (DTT) was purchased from EMD. ^3H-SAM can be purchased from American Radiolabeled Chemicals with a specific activity of 80 C1/mmol. 384-well streptavidin Flashplates can be purchased from PerkinElmer.
(§2) Recombinant PRC2 Enzymes. Human PRC2 enzymes are purified as 4-component enzyme complexes co-expressed in Spodoptera frugiperda (sf9) cells using a baculovirus expression system. […] The EED subunit contains an N-terminal FLAG tag that is used to purify the entire 4-component complex from sf9 cell lysates. The purity of the complexes meets or exceeds 95% as determined by SDS-PAGE and Agilent Bioanalyzer analysis.
(§3) General Procedure for PRC2 Enzyme Assays on Peptide Substrates. The assays are all performed in a buffer consisting of 20 mM bicine (pH=7.6), 0.5 mM DTT, 0.005% BSG and 0.002% Tween20, prepared on the day of use. […] DMSO (1 μL) is added to columns 11, 12, 23, 24, rows A-H for the maximum signal control, and SAH, a known product and inhibitor of PRC2 (1 μL) is added to columns 11, 12, 23, 24, rows I-P for the minimum signal control. A cocktail (40 μL) containing the wild-type PRC2 enzyme and H3K27me0 peptide or any of the Y641 mutant enzymes and H3K27me2 peptide is added by Multidrop Combi (Thermo). The compounds are allowed to incubate with PRC2 for 30 min at 25° C., then a cocktail (10 μL) containing a mixture of non-radioactive and ^3H-SAM is added to initiate the reaction (final volume=51 μL). […] The assays are stopped by the addition of non-radioactive SAM (10 μL) to a final concentration of 600 μM, which dilutes the ^3H-SAM to a level where its incorporation into the peptide substrate is no longer detectable. 50 μL of the reaction in the 384-well polypropylene plate is then transferred to a 384-well Flashplate and the biotinylated peptides are allowed to bind to the streptavidin surface for at least 1h before being washed three times with 0.1% Tween20 in a Biotek ELx405 plate washer. The plates are then read in a PerkinElmer TopCount platereader to measure the quantity of ^3H-labeled peptide bound to the Flashplate surface, measured as disintegrations per minute (dpm) or alternatively, referred to as counts per minute (cpm).
(§4) Where dpm=disintegrations per minute, cmpd=signal in assay well, and min and max are the respective minimum and maximum signal controls.
(§5) Where top and bottom are the normally allowed to float, but may be fixed at 100 or 0 respectively in a 3-parameter fit. The Hill Coefficient normally allowed to float but may also be fixed at 1 in a 3-parameter fit. Y is the % inhibition and X is the compound concentration.
For assay [3], the target named is Y641 mutant PRC2 enzyme (EZH2 Y641) (Homo sapiens, UniProt Q15910, Y641F). Briefly: PRC2 enzyme assay on peptide substrate, Y641 mutant EZH2.
Y641 mutant PRC2 enzyme (EZH2 Y641), sequence (Q15910 whole entry Y641F): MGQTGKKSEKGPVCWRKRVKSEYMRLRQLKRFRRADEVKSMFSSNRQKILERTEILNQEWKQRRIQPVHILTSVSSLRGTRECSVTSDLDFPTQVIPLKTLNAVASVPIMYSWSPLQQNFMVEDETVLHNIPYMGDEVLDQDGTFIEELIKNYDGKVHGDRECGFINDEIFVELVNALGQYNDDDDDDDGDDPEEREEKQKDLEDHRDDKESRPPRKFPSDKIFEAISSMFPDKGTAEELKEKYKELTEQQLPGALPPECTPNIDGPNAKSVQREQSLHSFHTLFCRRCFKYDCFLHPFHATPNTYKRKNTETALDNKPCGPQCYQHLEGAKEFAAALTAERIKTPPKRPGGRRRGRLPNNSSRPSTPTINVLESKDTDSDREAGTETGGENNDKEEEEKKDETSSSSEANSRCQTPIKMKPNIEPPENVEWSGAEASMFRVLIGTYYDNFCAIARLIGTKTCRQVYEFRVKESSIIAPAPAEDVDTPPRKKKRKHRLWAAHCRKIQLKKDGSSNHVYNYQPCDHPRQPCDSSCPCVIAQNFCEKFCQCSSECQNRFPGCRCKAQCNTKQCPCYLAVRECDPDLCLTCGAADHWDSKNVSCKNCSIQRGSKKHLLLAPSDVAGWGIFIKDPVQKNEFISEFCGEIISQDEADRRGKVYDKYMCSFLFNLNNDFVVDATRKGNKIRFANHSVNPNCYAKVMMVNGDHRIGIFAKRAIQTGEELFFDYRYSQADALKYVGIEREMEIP
Y641 mutant PRC2 enzyme (EZH2 Y641), sequence (O75530 whole entry partner): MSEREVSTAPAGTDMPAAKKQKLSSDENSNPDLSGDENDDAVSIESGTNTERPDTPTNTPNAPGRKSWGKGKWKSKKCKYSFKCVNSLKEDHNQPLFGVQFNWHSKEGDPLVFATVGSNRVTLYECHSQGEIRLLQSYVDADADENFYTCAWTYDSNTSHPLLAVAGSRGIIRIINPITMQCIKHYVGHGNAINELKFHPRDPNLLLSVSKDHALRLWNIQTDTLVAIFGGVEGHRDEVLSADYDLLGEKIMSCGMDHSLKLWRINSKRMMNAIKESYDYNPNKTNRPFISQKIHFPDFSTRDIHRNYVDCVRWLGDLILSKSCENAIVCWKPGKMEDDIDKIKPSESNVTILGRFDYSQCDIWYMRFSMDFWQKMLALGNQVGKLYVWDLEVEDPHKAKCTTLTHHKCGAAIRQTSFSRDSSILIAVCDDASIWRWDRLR
Y641 mutant PRC2 enzyme (EZH2 Y641), sequence (Q15022 whole entry partner): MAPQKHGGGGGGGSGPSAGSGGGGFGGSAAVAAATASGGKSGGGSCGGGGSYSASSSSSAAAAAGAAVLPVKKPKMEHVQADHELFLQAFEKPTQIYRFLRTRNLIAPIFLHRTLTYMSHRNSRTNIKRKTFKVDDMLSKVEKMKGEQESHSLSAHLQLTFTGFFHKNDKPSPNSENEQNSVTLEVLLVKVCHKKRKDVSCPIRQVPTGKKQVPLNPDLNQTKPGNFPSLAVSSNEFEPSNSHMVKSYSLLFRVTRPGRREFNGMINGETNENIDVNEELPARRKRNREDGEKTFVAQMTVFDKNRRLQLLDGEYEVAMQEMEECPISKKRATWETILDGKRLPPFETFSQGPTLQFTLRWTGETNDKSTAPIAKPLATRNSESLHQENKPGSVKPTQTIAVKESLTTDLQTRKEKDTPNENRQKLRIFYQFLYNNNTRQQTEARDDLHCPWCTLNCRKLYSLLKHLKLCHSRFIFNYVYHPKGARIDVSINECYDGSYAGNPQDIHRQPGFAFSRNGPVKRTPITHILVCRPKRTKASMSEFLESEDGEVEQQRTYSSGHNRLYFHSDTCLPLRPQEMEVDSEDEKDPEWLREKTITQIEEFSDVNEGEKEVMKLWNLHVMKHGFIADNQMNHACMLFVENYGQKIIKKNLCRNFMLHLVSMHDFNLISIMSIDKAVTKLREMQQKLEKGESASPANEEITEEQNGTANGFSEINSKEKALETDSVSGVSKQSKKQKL
Y641 mutant PRC2 enzyme (EZH2 Y641), sequence (Q09028 whole entry partner): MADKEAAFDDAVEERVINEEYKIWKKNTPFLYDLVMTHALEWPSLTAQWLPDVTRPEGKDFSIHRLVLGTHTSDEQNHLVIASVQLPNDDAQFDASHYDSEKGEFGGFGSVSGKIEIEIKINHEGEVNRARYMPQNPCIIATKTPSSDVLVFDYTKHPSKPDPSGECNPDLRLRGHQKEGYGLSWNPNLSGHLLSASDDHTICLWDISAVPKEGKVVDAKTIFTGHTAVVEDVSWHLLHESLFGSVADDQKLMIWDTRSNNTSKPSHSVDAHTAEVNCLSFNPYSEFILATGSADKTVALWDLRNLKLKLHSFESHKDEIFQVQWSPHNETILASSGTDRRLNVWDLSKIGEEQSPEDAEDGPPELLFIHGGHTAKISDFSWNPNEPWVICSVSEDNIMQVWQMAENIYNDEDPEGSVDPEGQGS
Description: as §1, §2, §3, §4, §5
The mark [4] stands for this setting: Homo sapiens, WSUDLCL2, 96 hours incubation.
The mark [5] stands for this setting: Homo sapiens, WSUDLCL2, 96 h, 96 hours incubation.

wild-type PRC2 enzyme (EZH2 WT), sequence (Q15910 whole entry): as the sequence (Q15910 whole entry Y641F) above, with F641Y counted along it
wild-type PRC2 enzyme (EZH2 WT), sequence (O75530 whole entry partner): as the sequence (O75530 whole entry partner) above
wild-type PRC2 enzyme (EZH2 WT), sequence (Q15022 whole entry partner): as the sequence (Q15022 whole entry partner) above
wild-type PRC2 enzyme (EZH2 WT), sequence (Q09028 whole entry partner): as the sequence (Q09028 whole entry partner) above

Usually IC50 stands for the concentration that inhibits the measured activity by half. `Cc1cc(=O)c(CNC(=O)c2ccc(C(C)Oc3ccccc3)cc2C)c(C)[nH]1` (centres unmarked) [compound 6, N-((2,6-dimethyl-4-oxo-1,4-dihydropyridin-3-yl)methyl)-2-methyl-4-(1-phenoxyethyl)benzamide]: the results for the IC50 in assay [1] (setting [4]), in assay [2] and in assay [3] were over 25 µM, over 50 µM and 10 to 50 µM, respectively.
With `COc1cc(C)[nH]c(=O)c1CNC(=O)c1c(C)n(C(C)C2CCOCC2)c2ccccc12` (racemic) [compound 24, N-((4-methoxy-6-methyl-2-oxo-1,2-dihydropyridin-3-yl)methyl)-2-methyl-1-(1-(tetrahydro-2H-pyran-4-yl)ethyl)-1H-indole-3-carboxamide], the half-inhibitory concentration (IC50) in assay [1] (setting [5]) was 1 to 10 µM.
As for `Cc1cc(C)c(CNC(=O)c2cc(Cl)c(C(C)Oc3ccccc3)cc2C)c(=O)[nH]1` (centres unmarked) [compound 12, 5-chloro-N-((4,6-dimethyl-2-oxo-1,2-dihydropyridin-3-yl)methyl)-2-methyl-4-(1-phenoxyethyl)benzamide], the IC50 in assay [1] (setting [4]) is over 25 µM; in assay [2], 0.1 to 1 µM; in assay [3], under 0.1 µM.
For `CCN(c1cc(-c2ccc(OCCOC)cc2)cc(C(=O)NC2CC(C)(C)NC(C)(C)C2)c1C)[C@H]1CC[C@H](N(C)C)CC1` [compound 33, 5-(((trans)-4-(dimethylamino)cyclohexyl)(ethyl)amino)-4′-(2-methoxyethoxy)-4-methyl-N-(2,2,6,6-tetramethylpiperidin-4-yl)-[1,1′-biphenyl]-3-carboxamide], in that order: over 25 µM, 10 to 50 µM and 10 to 50 µM.
Consider `COc1cc(C)[nH]c(=O)c1CNC(=O)c1c(C)n(C(C)C2CCOCC2)c2ccccc12` (single isomer, unassigned) [24a, N-((4-methoxy-6-methyl-2-oxo-1,2-dihydropyridin-3-yl)methyl)-2-methyl-1-(1-(tetrahydro-2H-pyran-4-yl)ethyl)-1H-indole-3-carboxamide], for which the IC50 in assay [1] (96 hours incubation) is 10 to 50 µM.
In the case of `COc1cc(C)[nH]c(=O)c1CNC(=O)c1c(C)n(C(C)C2CCOCC2)c2ccccc12` (single isomer, unassigned) [24b, N-((4-methoxy-6-methyl-2-oxo-1,2-dihydropyridin-3-yl)methyl)-2-methyl-1-(1-(tetrahydro-2H-pyran-4-yl)ethyl)-1H-indole-3-carboxamide], the IC50 in assay [1] (96 hours incubation) is 1 to 10 µM.
Turning to `Cc1cc(=O)c(CNC(=O)c2cc(Cl)c(Oc3cccc(-c4ccnnc4)c3C#N)cc2C)c(C)[nH]1` [compound 16, 5-chloro-4-(2-cyano-3-(pyridazin-4-yl)phenoxy)-N-((2,6-dimethyl-4-oxo-1,4-dihydropyridin-3-yl)methyl)-2-methylbenzamide], the IC50 in assay [1] (setting [4]) was over 25 µM.
As to `CCC(C)n1cc(C)c2c(C(=O)NCc3c(C)[nH]c(C)cc3=O)cc(-c3ccc(N4CCNCC4)nc3)cc21` (centres unmarked) [compound 25, 1-(sec-butyl)-N-((2,6-dimethyl-4-oxo-1,4-dihydropyridin-3-yl)methyl)-3-methyl-6-(6-(piperazin-1-yl)pyridin-3-yl)-1H-indole-4-carboxamide], the half-inhibitory concentration (IC50) in assay [1] (setting [4]) was 10 to 50 µM; in assay [2], under 0.1 µM; in assay [3] it was under 0.1 µM.
Regarding `Cc1cc(C)c(CNC(=O)c2c(C)n(C(C)C3CCOCC3)c3ccccc23)c(=O)[nH]1` (racemic) [compound 19, N-((4,6-dimethyl-2-oxo-1,2-dihydropyridin-3-yl)methyl)-2-methyl-1-(1-(tetrahydro-2H-pyran-4-yl)ethyl)-1H-indole-3-carboxamide], the 50% inhibitory concentration (IC50) in assay [1] (setting [5]) was 1 to 10 µM.
Regarding `Cc1cc(C)c(CNC(=O)c2ccc(C(C)Oc3ccccc3)cc2C)c(=O)[nH]1` (centres unmarked) [compound 5, N-((4,6-dimethyl-2-oxo-1,2-dihydropyridin-3-yl)methyl)-2-methyl-4-(1-phenoxyethyl)benzamide], the values for the IC50 in assay [1] (setting [4]), in assay [2] and in assay [3] were 10 to 50 µM, 0.1 to 1 µM and 0.1 to 1 µM, respectively.
